From ChEMBL document CHEMBL1149603, “5-Arylidene-2,4-thiazolidinediones as inhibitors of protein tyrosine phosphatases” (Bioorg Med Chem, 2007) come the findings set out here.

Chain of Receptor-type tyrosine-protein phosphatase beta (P23467 whole entry): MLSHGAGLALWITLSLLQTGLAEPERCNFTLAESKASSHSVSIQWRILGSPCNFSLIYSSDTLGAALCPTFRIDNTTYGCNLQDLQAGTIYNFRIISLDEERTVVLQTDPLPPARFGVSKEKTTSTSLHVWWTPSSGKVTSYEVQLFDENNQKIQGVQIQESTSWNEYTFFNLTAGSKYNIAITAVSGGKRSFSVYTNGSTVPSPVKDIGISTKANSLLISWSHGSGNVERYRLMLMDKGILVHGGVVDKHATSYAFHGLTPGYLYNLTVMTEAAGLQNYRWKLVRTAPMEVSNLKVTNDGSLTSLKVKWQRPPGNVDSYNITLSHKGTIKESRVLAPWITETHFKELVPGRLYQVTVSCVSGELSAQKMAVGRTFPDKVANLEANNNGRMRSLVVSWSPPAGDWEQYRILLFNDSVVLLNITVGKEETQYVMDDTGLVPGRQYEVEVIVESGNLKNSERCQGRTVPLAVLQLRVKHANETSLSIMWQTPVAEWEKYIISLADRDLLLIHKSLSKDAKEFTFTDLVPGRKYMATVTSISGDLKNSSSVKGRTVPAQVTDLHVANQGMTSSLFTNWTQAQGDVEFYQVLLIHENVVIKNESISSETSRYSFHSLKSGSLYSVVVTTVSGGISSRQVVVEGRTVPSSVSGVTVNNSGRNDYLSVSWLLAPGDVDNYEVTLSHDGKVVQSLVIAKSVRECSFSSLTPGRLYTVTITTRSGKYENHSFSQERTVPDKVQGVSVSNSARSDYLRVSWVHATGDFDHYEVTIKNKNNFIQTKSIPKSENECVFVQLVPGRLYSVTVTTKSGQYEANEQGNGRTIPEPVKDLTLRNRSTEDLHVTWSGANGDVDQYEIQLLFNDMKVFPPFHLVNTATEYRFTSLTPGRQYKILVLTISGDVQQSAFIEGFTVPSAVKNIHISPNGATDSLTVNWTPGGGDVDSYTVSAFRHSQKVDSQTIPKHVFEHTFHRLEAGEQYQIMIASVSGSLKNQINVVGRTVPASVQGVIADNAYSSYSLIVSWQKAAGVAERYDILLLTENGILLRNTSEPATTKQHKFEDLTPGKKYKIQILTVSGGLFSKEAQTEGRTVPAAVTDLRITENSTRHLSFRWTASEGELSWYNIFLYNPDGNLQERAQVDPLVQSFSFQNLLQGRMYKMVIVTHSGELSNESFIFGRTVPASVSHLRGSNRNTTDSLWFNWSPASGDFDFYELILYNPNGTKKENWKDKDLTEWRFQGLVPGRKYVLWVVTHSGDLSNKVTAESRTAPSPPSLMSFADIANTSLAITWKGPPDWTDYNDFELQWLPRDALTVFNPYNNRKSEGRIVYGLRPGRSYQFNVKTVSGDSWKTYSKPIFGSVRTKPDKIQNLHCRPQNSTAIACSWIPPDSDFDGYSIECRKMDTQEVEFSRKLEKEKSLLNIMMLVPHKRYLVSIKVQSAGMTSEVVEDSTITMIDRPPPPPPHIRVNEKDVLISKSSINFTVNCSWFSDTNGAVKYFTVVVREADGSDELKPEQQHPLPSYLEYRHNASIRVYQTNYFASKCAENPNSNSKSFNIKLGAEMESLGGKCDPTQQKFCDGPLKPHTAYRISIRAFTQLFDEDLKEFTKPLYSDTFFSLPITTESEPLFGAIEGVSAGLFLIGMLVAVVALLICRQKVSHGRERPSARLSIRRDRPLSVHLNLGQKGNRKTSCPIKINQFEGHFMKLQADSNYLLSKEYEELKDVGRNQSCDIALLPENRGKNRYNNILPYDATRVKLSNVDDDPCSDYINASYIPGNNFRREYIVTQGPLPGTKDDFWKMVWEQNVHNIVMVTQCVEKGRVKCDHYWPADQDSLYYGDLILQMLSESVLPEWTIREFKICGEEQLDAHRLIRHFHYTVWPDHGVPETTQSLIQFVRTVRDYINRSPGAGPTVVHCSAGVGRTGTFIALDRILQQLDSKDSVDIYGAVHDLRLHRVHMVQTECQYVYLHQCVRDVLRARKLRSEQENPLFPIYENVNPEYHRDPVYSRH
Chain of Receptor-type tyrosine-protein phosphatase F (P10586 whole entry): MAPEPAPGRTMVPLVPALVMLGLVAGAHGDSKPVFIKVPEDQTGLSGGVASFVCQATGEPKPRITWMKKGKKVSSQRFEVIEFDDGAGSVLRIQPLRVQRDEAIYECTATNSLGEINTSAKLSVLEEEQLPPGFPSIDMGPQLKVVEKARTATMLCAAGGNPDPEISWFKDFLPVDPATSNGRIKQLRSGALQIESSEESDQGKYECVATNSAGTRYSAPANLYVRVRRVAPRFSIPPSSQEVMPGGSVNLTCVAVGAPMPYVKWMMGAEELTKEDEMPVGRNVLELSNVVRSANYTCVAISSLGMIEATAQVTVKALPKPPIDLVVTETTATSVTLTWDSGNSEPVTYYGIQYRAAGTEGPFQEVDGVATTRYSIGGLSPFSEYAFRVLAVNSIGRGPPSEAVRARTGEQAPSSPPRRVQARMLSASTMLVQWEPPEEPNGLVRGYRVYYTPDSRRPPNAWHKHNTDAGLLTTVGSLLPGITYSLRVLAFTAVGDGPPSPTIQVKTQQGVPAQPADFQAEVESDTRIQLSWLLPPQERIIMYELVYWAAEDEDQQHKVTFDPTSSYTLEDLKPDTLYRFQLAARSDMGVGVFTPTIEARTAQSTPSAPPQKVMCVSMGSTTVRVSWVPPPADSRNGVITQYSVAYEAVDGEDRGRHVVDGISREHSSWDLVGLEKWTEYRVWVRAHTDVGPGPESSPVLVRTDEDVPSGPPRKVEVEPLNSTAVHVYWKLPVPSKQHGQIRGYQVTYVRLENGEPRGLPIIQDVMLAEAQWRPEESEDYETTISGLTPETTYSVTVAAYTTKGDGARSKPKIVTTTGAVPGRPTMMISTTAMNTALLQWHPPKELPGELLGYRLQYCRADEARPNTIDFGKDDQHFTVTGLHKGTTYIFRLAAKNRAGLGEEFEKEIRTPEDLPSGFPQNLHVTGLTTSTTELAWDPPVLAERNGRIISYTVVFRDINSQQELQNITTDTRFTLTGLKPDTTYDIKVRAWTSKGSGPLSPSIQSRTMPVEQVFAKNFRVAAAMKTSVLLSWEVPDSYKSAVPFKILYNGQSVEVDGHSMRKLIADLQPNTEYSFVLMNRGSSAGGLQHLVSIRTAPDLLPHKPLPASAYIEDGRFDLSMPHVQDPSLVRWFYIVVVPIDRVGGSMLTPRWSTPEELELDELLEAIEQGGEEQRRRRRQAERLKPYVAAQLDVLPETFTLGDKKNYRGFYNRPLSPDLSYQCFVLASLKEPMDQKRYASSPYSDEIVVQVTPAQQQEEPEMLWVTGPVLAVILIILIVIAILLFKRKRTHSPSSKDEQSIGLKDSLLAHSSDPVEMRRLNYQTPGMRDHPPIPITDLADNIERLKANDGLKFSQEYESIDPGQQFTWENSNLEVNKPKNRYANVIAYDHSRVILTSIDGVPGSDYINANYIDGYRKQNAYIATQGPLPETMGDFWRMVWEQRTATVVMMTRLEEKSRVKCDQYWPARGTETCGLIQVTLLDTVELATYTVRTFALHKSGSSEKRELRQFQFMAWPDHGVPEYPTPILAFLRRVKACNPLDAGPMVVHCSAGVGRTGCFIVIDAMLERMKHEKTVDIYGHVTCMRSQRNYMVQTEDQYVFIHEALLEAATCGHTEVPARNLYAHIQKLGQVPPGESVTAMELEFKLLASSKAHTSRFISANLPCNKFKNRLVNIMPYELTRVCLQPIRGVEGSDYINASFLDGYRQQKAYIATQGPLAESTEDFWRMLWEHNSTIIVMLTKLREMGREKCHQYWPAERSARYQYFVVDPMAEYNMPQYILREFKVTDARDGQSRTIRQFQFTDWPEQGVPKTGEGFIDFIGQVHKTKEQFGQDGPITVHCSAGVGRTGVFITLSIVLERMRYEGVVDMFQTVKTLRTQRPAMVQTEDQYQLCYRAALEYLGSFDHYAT

One experiment has as its target T1, Low molecular weight phosphotyrosine protein phosphatase (Homo sapiens, UniProt P24666).
T1 sequence (P24666 whole entry): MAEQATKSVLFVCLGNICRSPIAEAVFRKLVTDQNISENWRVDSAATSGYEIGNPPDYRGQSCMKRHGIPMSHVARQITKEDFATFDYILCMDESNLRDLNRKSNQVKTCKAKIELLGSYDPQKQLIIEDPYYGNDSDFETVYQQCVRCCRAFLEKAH
Nature of the experiment: Inhibition of human low molecular weight Protein-tyrosine phosphatase IF1.
In the case of `O=C(O)c1ccc(CN2C(=O)S/C(=C\c3cccc(Oc4ccccc4)c3)C2=O)cc1`, 37 µM corresponded to half-maximal inhibition (IC50).

In turn, `O=C(O)c1ccc(CN2C(=O)S/C(=C\c3ccc(OCc4ccccc4)cc3)C2=O)cc1` gave a 50% inhibitory concentration (IC50) of 2.5 µM.

Turning to `O=C(O)c1ccc(CN2C(=O)S/C(=C\c3cccc(OCc4ccccc4)c3)C2=O)cc1`, half-maximal inhibition (IC50) was put at 7.1 µM.

The compound `O=C(O)c1ccc(CN2C(=O)S/C(=C\c3ccc4ccccc4c3)C2=O)cc1` gave an IC50 of 12 µM.

Turning to `COc1cc(/C=C2\SC(=O)N(Cc3ccc(C(=O)O)cc3)C2=O)ccc1O`, the IC50 came to 9.1 µM.

`O=C(O)c1ccc(CN2C(=O)S/C(=C\c3cccc(O)c3)C2=O)cc1` yielded an IC50 of 85.7 µM.

As for `O=C(O)c1ccc(CN2C(=O)S/C(=C\c3cccc4ccccc34)C2=O)cc1`, inhibition was half-maximal at 122 µM (IC50).

`O=C(O)COc1ccc(/C=C2\SC(=O)N(Cc3ccc(C(=O)O)cc3)C2=O)cc1` yielded an IC50 of 219 µM.

`O=C(O)c1ccc(CN2C(=O)S/C(=C\c3ccc(Oc4ccccc4)cc3)C2=O)cc1`: inhibition was half-maximal at 0.9 µM (IC50).

Consider `O=C(O)c1ccc(CN2C(=O)S/C(=C\c3ccc(O)cc3)C2=O)cc1`, for which the IC50 amounted to 30 µM.

Another experiment has as its target T1, Low molecular weight phosphotyrosine protein phosphatase. Description: Inhibition of human low molecular weight Protein-tyrosine phosphatase IF2.
`O=C(O)c1ccc(CN2C(=O)S/C(=C\c3cccc(Oc4ccccc4)c3)C2=O)cc1`: the 50% inhibitory concentration (IC50) came to 130 µM.

In the case of `O=C(O)c1ccc(CN2C(=O)S/C(=C\c3ccc(OCc4ccccc4)cc3)C2=O)cc1`, the 50% inhibitory concentration (IC50) is 5.6 µM.

The compound `O=C(O)c1ccc(CN2C(=O)S/C(=C\c3cccc(OCc4ccccc4)c3)C2=O)cc1` displayed an IC50 of 18.4 µM.

For the compound `O=C(O)c1ccc(CN2C(=O)S/C(=C\c3ccc4ccccc4c3)C2=O)cc1`, half-maximal inhibition (IC50) required 92 µM.

Take `COc1cc(/C=C2\SC(=O)N(Cc3ccc(C(=O)O)cc3)C2=O)ccc1O`: 26.6 µM corresponded to half-maximal inhibition (IC50).

Take `O=C(O)c1ccc(CN2C(=O)S/C(=C\c3cccc(O)c3)C2=O)cc1`: the IC50 was 112 µM.

Consider `O=C(O)c1ccc(CN2C(=O)S/C(=C\c3cccc4ccccc34)C2=O)cc1`, for which inhibition was half-maximal at 138 µM (IC50).

`O=C(O)COc1ccc(/C=C2\SC(=O)N(Cc3ccc(C(=O)O)cc3)C2=O)cc1` registered an IC50 of 1640 µM.

In turn, `O=C(O)c1ccc(CN2C(=O)S/C(=C\c3ccc(Oc4ccccc4)cc3)C2=O)cc1` returned an IC50 of 13 µM.

`O=C(O)c1ccc(CN2C(=O)S/C(=C\c3ccc(O)cc3)C2=O)cc1`: the half-inhibitory concentration (IC50) turned out to be 85 µM.

A further experiment has as its target T2, Tyrosine-protein phosphatase non-receptor type 2 (Homo sapiens, UniProt P17706).
T2 sequence (P17706 whole entry): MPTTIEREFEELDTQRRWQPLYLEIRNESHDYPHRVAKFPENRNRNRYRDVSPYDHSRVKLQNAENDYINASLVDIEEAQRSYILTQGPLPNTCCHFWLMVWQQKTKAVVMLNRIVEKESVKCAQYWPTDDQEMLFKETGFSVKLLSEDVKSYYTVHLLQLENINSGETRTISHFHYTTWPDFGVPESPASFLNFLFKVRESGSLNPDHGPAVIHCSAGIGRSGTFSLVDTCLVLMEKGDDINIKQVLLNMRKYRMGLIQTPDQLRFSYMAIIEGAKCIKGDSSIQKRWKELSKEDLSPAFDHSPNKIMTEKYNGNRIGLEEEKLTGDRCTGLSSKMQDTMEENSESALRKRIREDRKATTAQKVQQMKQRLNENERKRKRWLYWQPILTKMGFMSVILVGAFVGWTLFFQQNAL
Description: Inhibition of human T cell protein-tyrosine phosphatase. The format is cell-based.
`O=C(O)c1ccc(CN2C(=O)S/C(=C\c3ccc(OCc4ccccc4)cc3)C2=O)cc1` registered an IC50 of 1.3 µM.

Take `O=C(O)c1ccc(CN2C(=O)S/C(=C\c3ccc(Oc4ccccc4)cc3)C2=O)cc1`: the IC50 is 2.8 µM.

The target of another experiment is T3, Tyrosine-protein phosphatase non-receptor type 1 (Homo sapiens, UniProt P18031).
T3 sequence (P18031 whole entry): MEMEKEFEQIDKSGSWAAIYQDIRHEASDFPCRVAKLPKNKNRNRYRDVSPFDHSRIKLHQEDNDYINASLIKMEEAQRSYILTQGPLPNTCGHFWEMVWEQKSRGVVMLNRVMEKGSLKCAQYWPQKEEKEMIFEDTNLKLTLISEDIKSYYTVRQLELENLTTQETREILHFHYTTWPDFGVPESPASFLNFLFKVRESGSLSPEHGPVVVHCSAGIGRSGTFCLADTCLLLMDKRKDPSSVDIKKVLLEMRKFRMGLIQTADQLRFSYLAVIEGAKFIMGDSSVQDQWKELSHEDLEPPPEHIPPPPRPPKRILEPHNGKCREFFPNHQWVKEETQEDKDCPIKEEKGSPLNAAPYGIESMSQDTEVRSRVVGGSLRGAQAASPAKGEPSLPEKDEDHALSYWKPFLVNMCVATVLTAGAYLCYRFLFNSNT
Description: Inhibition of human protein-tyrosine phosphatase 1B.
The compound `O=C(O)c1ccc(CN2C(=O)S/C(=C\c3cccc(Oc4ccccc4)c3)C2=O)cc1` displayed an IC50 of 18 µM.

The compound `O=C(O)c1ccc(CN2C(=O)S/C(=C\c3ccc(OCc4ccccc4)cc3)C2=O)cc1` gave an IC50 of 1.6 µM.

`O=C(O)c1ccc(CN2C(=O)S/C(=C\c3cccc(OCc4ccccc4)c3)C2=O)cc1` displayed an IC50 of 1.1 µM.

Compound `O=C(O)c1ccc(CN2C(=O)S/C(=C\c3ccc4ccccc4c3)C2=O)cc1` displayed an IC50 of 6.5 µM.

In the case of `COc1cc(/C=C2\SC(=O)N(Cc3ccc(C(=O)O)cc3)C2=O)ccc1O`, the 50% inhibitory concentration (IC50) was 2.6 µM.

The compound `O=C(O)c1ccc(CN2C(=O)S/C(=C\c3cccc(O)c3)C2=O)cc1` gave an IC50 of 10.2 µM.

In turn, `O=C(O)c1ccc(CN2C(=O)S/C(=C\c3cccc4ccccc34)C2=O)cc1` had an IC50 of 5.5 µM.

For the compound `O=C(O)COc1ccc(/C=C2\SC(=O)N(Cc3ccc(C(=O)O)cc3)C2=O)cc1`, 85 µM corresponded to half-maximal inhibition (IC50).

`O=C(O)c1ccc(CN2C(=O)S/C(=C\c3ccc(Oc4ccccc4)cc3)C2=O)cc1` showed an IC50 of 2.8 µM.

`O=C(O)c1ccc(CN2C(=O)S/C(=C\c3ccc(O)cc3)C2=O)cc1` returned an IC50 of 10 µM.

The next experiment addresses T4, Low molecular weight phosphotyrosine protein phosphatase (Saccharomyces cerevisiae S288c, UniProt P40347).
T4 sequence (P40347 whole entry): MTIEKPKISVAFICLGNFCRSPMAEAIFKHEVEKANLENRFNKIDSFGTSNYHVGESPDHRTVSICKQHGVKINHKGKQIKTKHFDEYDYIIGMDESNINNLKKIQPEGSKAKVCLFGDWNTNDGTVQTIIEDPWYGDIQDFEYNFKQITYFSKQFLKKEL
Description: Inhibition of Saccharomyces cerevisiae low molecular weight Protein-tyrosine phosphatase Ltp1.
In turn, `O=C(O)c1ccc(CN2C(=O)S/C(=C\c3cccc(Oc4ccccc4)c3)C2=O)cc1` displayed an IC50 of 483 µM.

Consider `O=C(O)c1ccc(CN2C(=O)S/C(=C\c3ccc(OCc4ccccc4)cc3)C2=O)cc1`, for which it took 15 µM to reach half-maximal inhibition (IC50).

Consider `O=C(O)c1ccc(CN2C(=O)S/C(=C\c3cccc(OCc4ccccc4)c3)C2=O)cc1`, for which the IC50 was 19.7 µM.

As to `O=C(O)c1ccc(CN2C(=O)S/C(=C\c3ccc4ccccc4c3)C2=O)cc1`, the IC50 turned out to be 149 µM.

Regarding `COc1cc(/C=C2\SC(=O)N(Cc3ccc(C(=O)O)cc3)C2=O)ccc1O`, it took 389 µM to reach half-maximal inhibition (IC50).

Compound `O=C(O)c1ccc(CN2C(=O)S/C(=C\c3cccc(O)c3)C2=O)cc1` had a concentration for half-maximal inhibition (IC50) of 1390 µM.

Regarding `O=C(O)c1ccc(CN2C(=O)S/C(=C\c3cccc4ccccc34)C2=O)cc1`, 99 µM corresponded to half-maximal inhibition (IC50).

The compound `O=C(O)COc1ccc(/C=C2\SC(=O)N(Cc3ccc(C(=O)O)cc3)C2=O)cc1` had an IC50 greater than 450 µM.

For `O=C(O)c1ccc(CN2C(=O)S/C(=C\c3ccc(Oc4ccccc4)cc3)C2=O)cc1`, inhibition was half-maximal at 34 µM (IC50).

Compound `O=C(O)c1ccc(CN2C(=O)S/C(=C\c3ccc(O)cc3)C2=O)cc1` came in with an IC50 of 188 µM.

A further experiment concerns the target Receptor-type tyrosine-protein phosphatase F (Homo sapiens, UniProt P10586). Description: Inhibition of human leukocyte antigen related protein-tyrosine phosphatase.
`O=C(O)c1ccc(CN2C(=O)S/C(=C\c3ccc(OCc4ccccc4)cc3)C2=O)cc1` had an IC50 of 27 µM.

Molecular target in another experiment: not listed separately
Nature of the experiment: Inhibition of Yersinia Tyrosine-protein phosphatase yopH. Details: species or system Yersinia sp.
For `O=C(O)c1ccc(CN2C(=O)S/C(=C\c3ccc(OCc4ccccc4)cc3)C2=O)cc1`, the IC50 was found to be 0.3 µM.

`O=C(O)c1ccc(CN2C(=O)S/C(=C\c3ccc(Oc4ccccc4)cc3)C2=O)cc1`: the IC50 stood at 1 µM.

A further experiment concerns the target Receptor-type tyrosine-protein phosphatase beta (Homo sapiens, UniProt P23467). Description: Inhibition of human protein-tyrosine phosphatase beta.
On to `O=C(O)c1ccc(CN2C(=O)S/C(=C\c3ccc(OCc4ccccc4)cc3)C2=O)cc1`, for which the IC50 worked out at 0.4 µM.

On to `O=C(O)c1ccc(CN2C(=O)S/C(=C\c3ccc(Oc4ccccc4)cc3)C2=O)cc1`, for which half-maximal inhibition (IC50) was put at 1.1 µM.
